Results published in US20230406856A1, “SUBSTITUTED PYRROLO [2, 3-b] PYRIDINE AND PYRAZOLO [3, 4-b] PYRIDINE DERIVATIVES AS PROTEIN KINASE INHIBITORS” (Fochon Biosciences, Ltd., priority 2020, published 2023).
pIC50: −log10 of the molar value.

Tests used:
[1] = test system: DOHH2 cells; assay: Cell proliferation assay in DOHH2 cells (MTS); assay type: cell-based; conditions: Homo sapiens, DOHH-2, inhibition of DOHH2 cell proliferation, 120 h incubation
Experimental: To investigate whether a compound is able to inhibit the activity of BTK in cells, a mechanism-based assay using DOHH2 (DSMZ catalog #: ACC47) cell was developed. In this assay, inhibition of BTK was detected by the inhibition of DOHH2 cells proliferation. Cells were collected and plated onto 96-well plates at the optimized cell density (5000 cells/well). Plates were incubated at 37° C., with 5% CO2 for 4h. Compounds were serially diluted and added to the plates with the final concentrations as 10000, 3333.3, 1111.1, 370.4, 123.5, 41.2, 13.7, 4.6 and 1.5 nM. Plates were incubated at 37° C., with 5% CO2 for 120 h. An aliquot of 20 μL MTS/100 μL medium mixture solution were added to each well and the plates were incubated for exactly 2 h. The reaction was stopped by adding 25 μL 10% SDS to each well. The absorbance was measured by a microplate reader at 490 nm and 650 nm (reference wavelength). IC50 was calculated using GraphPad Prism 5.0.

[2] = target: BTK (C481S) (Homo sapiens (Human), UniProt Q06187, C481S); assay: Kinase assay of BTK (C481S), [33P]-ATP filter-binding, at Reaction Biology Corporation; assay type: biochemical; conditions: 10 μM ATP, 6 nM BTK (C481S), pEY substrate, 20 min pre-incubation, 120 min reaction
BTK (C481S), sequence (Q06187 whole entry C481S): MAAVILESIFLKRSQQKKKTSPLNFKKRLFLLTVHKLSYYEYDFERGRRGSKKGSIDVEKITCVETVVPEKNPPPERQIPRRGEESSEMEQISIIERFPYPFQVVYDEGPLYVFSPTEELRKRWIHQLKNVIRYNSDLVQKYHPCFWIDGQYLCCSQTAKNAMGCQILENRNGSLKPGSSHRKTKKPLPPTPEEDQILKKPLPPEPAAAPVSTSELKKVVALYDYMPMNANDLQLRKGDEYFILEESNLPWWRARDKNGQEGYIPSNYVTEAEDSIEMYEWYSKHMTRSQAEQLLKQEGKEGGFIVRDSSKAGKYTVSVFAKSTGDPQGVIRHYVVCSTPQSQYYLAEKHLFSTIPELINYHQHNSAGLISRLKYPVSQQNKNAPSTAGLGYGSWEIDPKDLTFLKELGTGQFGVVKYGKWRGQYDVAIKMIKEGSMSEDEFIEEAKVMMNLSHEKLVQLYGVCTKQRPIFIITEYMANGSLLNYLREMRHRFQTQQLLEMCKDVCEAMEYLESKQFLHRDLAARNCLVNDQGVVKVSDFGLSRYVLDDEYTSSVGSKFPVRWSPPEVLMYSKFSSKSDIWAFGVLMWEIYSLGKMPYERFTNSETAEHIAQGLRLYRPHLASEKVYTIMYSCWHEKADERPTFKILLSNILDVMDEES
Experimental: The kinase activity of BTK (C481S) was assayed at Reaction Biology Corporation. The substrate in the BTK (C481S) reaction, pEY (poly[Glu:Tyr] (4:1)) (Sigma, Cat. #P7244-250MG), was prepared in fresh reaction buffer (20 mM Hepes (pH 7.5), 10 mM MgCl2, 1 mM EGTA, 0.02% Brij35, 0.02 mg/ml BSA, 0.1 mM Na3VO4, 2 mM DTT, 1% DMSO). BTK(C481S) (SignalChem, Cat. #B10-12CH) was delivered into the substrate solution and mixed gently. The final concentrations of BTK (C481S) and the substrate in the reaction mixture were 6 nM and 0.2 mg/ml, respectively. Compounds were tested in 10-point concentration/response mode with 3-fold serial dilution steps starting at 1 μM.
Compounds in 100% DMSO were delivered into the kinase reaction mixture by acoustic liquid delivery technology (Echo550; nanoliter range) and incubated for 20 min at room temperature. 10 μM [^33P]-ATP (ATP: Sigma, Cat #: A7699; [^33P]-ATP: Hartmann Analytic, Cat #: SCF-301-12) was delivered into the reaction mixture to initiate the reaction. The mixture was incubated for 120 min at room temperature. Radioactivity was detected utilizing a proprietary filter-binding method. Kinase activity data were expressed as the percent remaining kinase activity in test samples compared to vehicle (DMSO) reactions. IC50 values were obtained using GraphPad Prism software.

[3] = Pharmacokinetics in male Sprague-Dawley rats, single oral gavage; assay type: in vivo; conditions: 5 mg/kg; for AUC(0-t) / half-life: rat, plasma
Experimental: The purpose of this study was to determine the pharmacokinetics of Example 1 and Example 2 in male Sprague-Dawley rats (Supplied by Beijing Vital River Laboratory Animal Technology Co., Ltd.).
Animals were administered with Example 1 and Example 2 by single oral gavage (PO) administration at 5 mg/kg, respectively, which was formulated in 10% DMSO (Sigma, Batch #STBJ2353): 60% PEG400 (PanReac AppliChem, Batch #1480132): 30% water at 2 mg/mL as a solution. Blood samples were collected at predose, 0.083, 0.25, 0.5, 1, 2, 4, 8, 12 and 24 hours post-dose. Concentrations of Example 1 and Example 2 in plasma were determined by LC/MS/MS (LC: Waters UPLC; MS: API4000).

[4] = Pharmacokinetics in male Beagle dogs, single oral gavage; assay type: in vivo
Experimental: The purpose of this study was to determine the pharmacokinetics of Example 1 in male Beagle dogs (Supplied by Marshall Bioresources, Beijing, China).
Animals were administered with Example 1 and Reference Compound 1 by single oral gavage (PO) administration at 3 mg/kg and 5 mg/kg, respectively, which was formulated in 10% DMSO (Sigma, Batch #STBJ2353): 60% PEG400 (PanReac AppliChem, Batch #1480132): 30% water at 5 mg/mL as a solution. Blood samples were collected at predose, 0.083, 0.25, 0.5, 1, 2, 4, 8, 12 and 24 hours post-dose. Concentrations of Example 1 and Reference Compound 1 in plasma were determined by LC/MS/MS (LC: Waters; MS: API4000).

| pIC50 [2] | F [3] [%] | AUC(0-t) [3] [ng·h/mL] | half-life [3] [h] | Structure (SMILES) | pIC50 [1] | further results |
| --- | --- | --- | --- | --- | --- | --- |
| 8.82 | 24.9 | 4950 | 3.69 | CS(=O)(=O)NC[C@@H]1CC[C@@H](Nc2c(F)cnc3[nH]cc(C(=O)c4ccc(Oc5c(F)cccc5F)cc4F)c23)CO1 [Example 1, N-(((2S,5R)-5-((3-(4-(2,6-difluorophenoxy)-2-fluorobenzoyl)-5-fluoro-1H-pyrrolo[2,3-b]pyridin-4-yl)amino)tetrahydro-2H-pyran-2-yl)methyl)methanesulfonamide] | 9.00 | F ([4]; 3 mg/kg): 26.0%; AUC(0-t) ([4]; dog, 3 mg/kg, plasma): 3820 ng·h/mL; half-life ([4]; dog, 3 mg/kg, plasma): 15.6 h |
| 9.18 | 31 | 8340 | 3.08 | CS(=O)(=O)NC[C@@H]1CC[C@@H](Nc2c(F)cnc3[nH]cc(C(=O)c4ccc(Oc5ccccc5F)cc4F)c23)CO1 [Example 2, N-(((2S,5R)-5-((5-fluoro-3-(2-fluoro-4-(2-fluorophenoxy)benzoyl)-1H-pyrrolo[2,3-b]pyridin-4-yl)amino)tetrahydro-2H-pyran-2-yl)methyl)methanesulfonamide] | 7.57 |  |
|  |  |  |  | CCS(=O)(=O)NC[C@@H]1CC[C@@H](Nc2c(F)cnc3[nH]cc(C(=O)c4ccc(Oc5ccccc5F)cc4F)c23)CO1 [Example 3, N-(((2S,5R)-5-((5-fluoro-3-(2-fluoro-4-(2-fluorophenoxy)benzoyl)-1H-pyrrolo[2,3-b]pyridin-4-yl)amino)tetrahydro-2H-pyran-2-yl)methyl)ethanesulfonamide] | 9.00 |  |
|  |  |  |  | CCS(=O)(=O)NC[C@@H]1CC[C@@H](Nc2c(F)cnc3[nH]cc(C(=O)c4ccc(Oc5c(F)cccc5F)cc4F)c23)CO1 [Example 6, N-(((2S,5R)-5-((3-(4-(2,6-difluorophenoxy)-2-fluorobenzoyl)-5-fluoro-1H-pyrrolo[2,3-b]pyridin-4-yl)amino)tetrahydro-2H-pyran-2-yl)methyl)ethanesulfonamide] | 9.00 |  |
|  |  |  |  | O=C(c1ccc(Oc2c(F)cccc2F)cc1F)c1c[nH]c2ncc(F)c(N[C@@H]3CC[C@@H](CNS(=O)(=O)C4CC4)OC3)c12 [Example 8, N-(((2S,5R)-5-((3-(4-(2,6-difluorophenoxy)-2-fluorobenzoyl)-5-fluoro-1H-pyrrolo[2,3-b]pyridin-4-yl)amino)tetrahydro-2H-pyran-2-yl)methyl)cyclopropanesulfonamide] | 9.00 |  |
|  |  |  |  | CCOc1cnc2[nH]cc(C(=O)c3ccc(Oc4ccccc4F)cc3F)c2c1N[C@@H]1CC[C@@H](CO)OC1 [Reference Compound 1, (5-ethoxy-4-(((3R,6S)-6-(hydroxymethyl)tetrahydro-2H-pyran-3-yl)amino)-JH-pyrrolo[2,3-b]pyridin-3-yl)(2-fluoro-4-(2-fluorophenoxy)phenyl)methanone, reference compound] |  | F ([4]; 5 mg/kg): 9.82%; AUClast ([4]; 5 mg/kg, plasma): 200 ng·h/mL; T1/2 ([4]; 5 mg/kg, plasma): 3.39 h |
